Measured values reported in patent publication US20260356849A1, “COMPOUNDS AND METHODS FOR TREATING CANCERS” (CEDARS-SINAI MEDICAL CENTER, priority 2022, published 2026).
pIC50: −log10 of the molar value.

What was measured:
Type in all cases: cell-based
HepG2 cells = experiment: MTT assay in HepG2 cells; conditions: Homo sapiens
Method: (§1) The inventors identified nine inhibitors and perfomed an EdU assay after treating non-malignant (HEK293, AML12) and malignant (HepG2, MzChA-1, HT-29, RKO) cells with varying concentrations of GIT1 inhibitor for 24 hours (results are mean±SE from 3 independent experiments done in duplicates, *p<0.05 vs. DMSO). An MTT assay was also performed after treating primary human and mouse hepatocytes and liver and colon cancer cells with varying concentrations of GIT1 inhibitor for 24 hours (results are mean±SE from 3 independent experiments done in duplicates, *p<0.05 vs. DMSO). […] Percoll may be used to remove dead human hepatocytes.

human hepatocytes = experiment: Toxicity in human hepatocytes; conditions: data not shown
Method: as §1

RKO cells = experiment: MTT assay in RKO cells; conditions: Homo sapiens
Method: as §1

mouse hepatocytes = experiment: Toxicity in mouse hepatocytes; conditions: data not shown
Method: as §1

pIC50 (HepG2 cells) | Structure (SMILES) | toxicity in human hepatocytes (human hepatocytes) | pIC50 (RKO cells) | toxicity in mouse hepatocytes (mouse hepatocytes)
6.08 | CC1(C)Cc2nc3sc4c(=O)n(CC(=O)N5CCOCC5)cnc4c3cc2CO1 [Compound C33] | no toxicity | 6.01 | no toxicity
< 4.30 | CC(=O)c1ccc(NC(=O)Cn2cnc3c(sc4nc5c(cc43)COC(C)(C)C5)c2=O)cc1 [Compound C38] | – | < 4.60 | –
< 4.60 | COc1cccc(NC(=O)Cn2cnc3c(sc4nc5c(cc43)COC(C)(C)C5)c2=O)c1 [Compound C39] | – | < 4.30 | –
